From patent US12303471B2, “Methods of treatment of temozolomide-resistant glioma using coenzyme Q10” (BPGbio, Inc., priority 2015, dated 2025)
pIC50: −log10 of the molar value.

Tests used:
[1] = system: triple-negative breast cancer cell line MDA-MB231; assay: Coenzyme Q10 sensitivity (IC50/IC90) of MDA-MB231 cells; type: cell-based; settings: Homo sapiens, MDA-MB-231
Description: (§1) Oxygen consumption rate (OCR) was measured during various states of succinate-fueled mitochondrial respiration in the triple-negative breast cancer cell line MDA-MB231 and the mutant K-Ras-driven pancreatic cancer cell line MIA PaCa-2 treated with different concentrations of Coenzyme Q10. […] The assays were performed in permeabilized adherent cells using the Seahorse XF96 Analyzer. Cells were permeabilized with XF PMP reagent and put into mitochondrial State 3 by replacing the growth media with Mitochondrial Assay Solution (containing mannitol, sucrose, KH2PO4, MgCl2, HEPES, and EGTA) supplemented with succinate, rotenone (to block reverse electron transfer back to Complex I), and ADP. OCR was measured in State 3, and then again upon sequential injection of oligomycin and FCCP to induce State 4o (o=oligomycin) and State 3u (u=uncoupled).

[2] = system: mutant K-Ras-driven pancreatic cancer cell line MIA PaCa-2; assay: Coenzyme Q10 sensitivity (IC50/IC90) of MIA PaCa-2 cells; type: cell-based; settings: Homo sapiens
Description: as §1

MDA-MB231 = assay: Oxygen consumption rate during succinate-fueled mitochondrial respiration, permeabilized cells, Seahorse XF96; type: cell-based; settings: 100, 155 or 310 μM Coenzyme Q10, State 3, State 4o, State 3u, FIG. 1
Description: as §1

MIA PaCa-2 = assay: as above; type: cell-based; settings: 100, 137 or 274 μM Coenzyme Q10, State 3, State 4o, State 3u, FIG. 1
Description: as §1

Rat C6 glioma cells = assay: Rat model of glioma (C6 glioma cell implantation); type: in vivo, Sprague-Dawley rats
Description: The C6 glioma cells develop into a glioma-like tumor. The rats bearing C6 gliomas were treated twice per day with 5, 10, 25 or 50 mg/kg Coenzyme Q10 by intraperitoneal or subcutaneous injection. Coenzyme Q10 treatment was initiated 1 day (n=3), 4 days (n=14), or 8 days (n=3) after implantation of C6 glioma cells. Coenzyme Q10 treatment was continued twice daily until the rat died, or until 34 days after implantation of glioma cells. […] Four of the rats treated with Coenzyme Q10 survived for at least 50 days after implantation of the C6 glioma cells, while none of the untreated control rats survived more than 15 days after implantation. In fact, two of the rats treated with Coenzyme Q10 survived more than 100 days post implantation (see below and FIGS. 9 and 10). Of the four rats that were alive at Day 50, 1 received 10 mg/kg Coenzyme Q10 starting 4 days after implantation, and 3 received 50 mg/kg Coenzyme Q10 starting 4 days or 8 days after implantation.
Enlarged ventricles (hydrocephalus) were present 27 days post C6 implantation (FIG. 9A). At 34 days post-implantation, enlarged ventricles were stilled observed. In addition, there was a complex mass in the tumor area which was not clearly growing (FIG. 9B). Coenzyme Q10 treatment was discontinued at Day 34. […] At 27 days post C6 implantation, a complex mass was visible, but it was unclear if this mass represented a tumor or a scar (FIG. 10A). At 34 days post C6 implantation, a scar was visible at the site of implantation and improvement in the overall condition of the rat was observed that was not consistent with tumor growth (FIG. 10B).

[3] = Coenzyme Q10 plasma levels in rats; type: in vivo; settings: four days after treatment initiated
Description: Coenzyme Q10 plasma levels were measured in the rats bearing C6 gliomas four days after Coenzyme Q10 treatment was initiated.

[4] = system: human U373 cells (TMZ-sensitive and TMZ-resistant GBM cells); assay: TMZ-sensitive and TMZ-resistant U373 glioblastoma tumors in mice; type: in vivo; settings: intravenous single daily dose of 4% Coenzyme Q10, 50 mg/kg/day
Description: Equal numbers (1×10^7) of human U373 cells left untreated and thus sensitive (TMZ-sensitive) versus TMZ long-term treated (TMZ-resistant) GBM cells (see Calve et al., 2010, Neoplasia 12(9): 727-739, which is incorporated by reference herein in its entirety) are suspended in MATRIGEL® and injected into mice. Tumors are allowed to develop, and treatment is not initiated unless tumors are present.
Mice having tumors are randomized into 4 groups of 30 mice each as follows: • i. Group 1—No treatment, TMZ-sensitive • ii. Group 2—No treatment, TMZ-resistant • iii. Group 3—Intravenous single daily dose of 4% Coenzyme Q10, 50 mg/kg/day, TMZ-sensitive • iv. Group 4—Intravenous single daily dose of 4% Coenzyme Q10, 50 mg/kg/day, TMZ-resistant
Animals are observed for viability and tumor growth is monitored. Animal survival results are collected through day 400.

[5] = system: TMZ-resistant glioblastoma; assay: Coenzyme Q10 in TMZ-resistant glioblastoma in humans; type: in vivo; settings: 4% coenzyme Q10 nanosuspension, 24-, 48- or 96-hour infusion, monotherapy
Description: The efficacy of Coenzyme Q10 in treating TMZ-resistant glioblastoma is evaluated in humans using Coenzyme Q10 monotherapy and Coenzyme Q10 in combination with chemotherapy. The Coenzyme Q10 is provided as a 4% coenzyme Q10 nanosuspension formulation as described in WO 2011/112900, the entire contents of which are expressly incorporated herein by reference. The study is designed with dosing schedules of a 24-hour infusion, 48-hour infusion, or 96-hour continuous infusion. This extended dosage schedule is intended to decrease Coenzyme Q10 Cmax values and maintain steady-state levels. Patient survival time and glioblastoma tumor status before, during, and after Coenzyme Q10 treatment is evaluated.

MDA-MB231 cells [6] = assay: CellTiter-Fluor viability assay, co-treatment with Coenzyme Q10 and Complex II inhibitors; settings: 5 μM Atpenin A5 with 0-1600 μM Coenzyme Q10, 72 h; FIG. 4
Description: To assess whether the effects of Coenzyme Q10 on Complex II-mediated respiration are functionally linked to Coenzyme Q10-induced cytotoxicity, MDA-MB231 cells were co-treated with two inhibitors of Complex II (atpenin A5 and malonate) which act at separate sites in Complex II.
The viability of MDA-MB231 cells treated with atpenin A5 and Coenzyme Q10 or malonate and Coenzyme Q10 was determined by a CellTiter-Fluor viability assay (Promega, Cat. No. G6080). Briefly, cells were co-treated with 0, 25, 50, 100, 200, 400, 800 or 1600 μM Coenzyme Q10 and either 5 μM Atpenin A5 or 5 mM malonic acid for 72 h, and then assayed per the manufacture's protocol.

[7] = system: recurrent high-grade gliomas; settings: patients with recurrent high-grade gliomas; cited from earlier work
MDA-MB231 cells [8] = assay: Propidium iodide (PI) and Annexin V flow cytometry cell death assay; type: cell-based; settings: malonate 5 mM with Coenzyme Q10 155 μM or 310 μM, 72 hours; FIG. 5
Description: MDA-MB231 cells were treated with Coenzyme Q10 and/or malonate as shown below: • 1. Untreated • 2. Malonate (5 mM) • 3.
At 72 hours post treatment, cell culture supernatant (containing detached apoptotic cells) and adherent cells were harvested by trypsinization, centrifuged at 500 g for 5 minutes, and the resulting pellets were washed in staining media (PBS, 0.5% FBS). Cells were co-stained with FITC conjugated anti-Annexin-V (1:100, Molecular Probes) to detect PS exposure on the outer membrane surface and Propidium Iodine (PI, 1:2500, Molecular Probes) in 200 μL binding buffer (Molecular Probes). After a 15 minute incubation in the dark, the percentage of Annexin V+/PI+ cells was analyzed using an Accuri C6 Flow Cytometer (BD Biosciences) and samples were run within one hour after staining.
The cells were rated as follows: • 1. PI-negative and Annexin V-negative: viable • 2. PI-negative and Annexin V-positive: early apoptosis • 3. PI-positive and Annexin V-positive: late apoptosis • 4. PI-positive and Annexin V-negative: dead.

COC1=C(OC)C(=O)C(CC=C(C)CCC=C(C)CCC=C(C)CCC=C(C)CCC=C(C)CCC=C(C)CCC=C(C)CCC=C(C)CCC=C(C)CCC=C(C)C)=C(C)C1=O [Coenzyme Q10, 2-(3,7,11,15,19,23,27,31,35,39-decamethyltetraconta-2,6,10,14,18,22,26,30,34,38-decaenyl)-5,6-dimethoxy-3-methyl-cyclohexa-2,5-diene-1,4-dione]
pIC50 [1]: 3.81 | IC90 [1]: 310 µM | pIC50 [2]: 3.86 | IC90 [2]: 274 µM | succinate-fueled respiration (oxygen consumption rate) (MDA-MB231): significantly decreased by Coenzyme Q10 in a dose dependent manner | succinate-fueled respiration (oxygen consumption rate) (MIA PaCa-2): significantly decreased by Coenzyme Q10 in a dose dependent manner | condition of surviving rat, coronal sections (Rat C6 glioma cells; 10 mg/kg twice daily i.p. from day 4, discontinued Day 34, 103 days post-implantation, FIG. 9C): appeared normal with possible scar tissue in the tumor area | rats alive at Day 50 (Rat C6 glioma cells; 10 mg/kg twice daily, starting 4 days after implantation): 1 | condition of surviving rat, coronal sections (Rat C6 glioma cells; 50 mg/kg twice daily i.p. from day 4, 103 days after C6 implantation, FIG. 10C): clinically normal | rats alive at Day 50 (Rat C6 glioma cells; 50 mg/kg twice daily, starting 4 days or 8 days after implantation): 3 | rats that survived for at least 50 days after implantation of the C6 glioma cells (Rat C6 glioma cells; 5, 10, 25 or 50 mg/kg twice per day intraperitoneal, n=20, no untreated control (n=33) survived more than 15 days): Four | rats that survived more than 100 days post implantation (Rat C6 glioma cells; Coenzyme Q10 twice daily intraperitoneal, n=20): two | dose that resulted in the highest Coenzyme Q10 plasma levels ([3]; 5, 10, 25 or 50 mg/kg twice daily intraperitoneal, FIG. 12): 25 mg/kg | Coenzyme Q10 plasma levels, intraperitoneal compared to subcutaneous injection ([3]; rats bearing C6 gliomas, 50 mg/kg twice daily, FIG. 11): significantly higher | glioblastoma tumor growth compared to control (untreated) animals [4]: significantly reduced glioblastoma tumor growth | survival compared to control (untreated) animals ([4]; through day 400): significantly increased survival | tumor growth relative to standard chemotherapy [5]: reduce tumor growth

COc1[nH]c(=O)c(C(=O)[C@@H](C)C[C@H](C)[C@@H](Cl)CCl)c(O)c1OC [atpenin A5]
effect of co-treatment on Coenzyme Q10-induced cytotoxicity (MDA-MB231 cells [6]): enhanced cytotoxicity

Bevacizumab: monoclonal antibody against vascular endothelial growth factor (VEGF)
overall median survival [7]: improved overall median survival | response rates [7]: 32-62%

O=C(O)CC(=O)O [malonate]
effect on Coenzyme Q10-induced cell death (MDA-MB231 cells [8]): attenuated Coenzyme Q10-induced cell death
